Assays:
[1] = tested on: Human immunodeficiency virus 1; assay: Antiviral activity against […] HIV-1 infected in human MT4 cells assessed as reduction in virus-induced cytopathic effect incubated for 5 days by MTT assay; assay type: functional, organism-based; conditions: Human immunodeficiency virus 1, MT4, 120 h
[2] = Cytotoxicity against human MT4 cells assessed as cell growth inhibition incubated for 5 days by MTT assay; assay type: toxicity, cell-based; conditions: time 5 day
[3] = Selectivity index, ratio of CC50 for human MT4 cells to EC50 for antiviral activity against NNRTI resistant HIV-1 infected in human MT4 cells; assay type: toxicity, cell-based; conditions: read-out: Ratio CC50/EC50
[4] = tested on: Human immunodeficiency virus 1; assay: Antiviral activity against drug-resistant HIV-1 L100I mutant infected in human MT4 cells assessed as reduction in virus-induced cytopathic effect incubated for 5 days by MTT assay; assay type: functional, organism-based; conditions: Human immunodeficiency virus 1, L100I mutant, MT4, 120 h
[5] = tested on: Human immunodeficiency virus 1; assay: Antiviral activity against drug-resistant HIV-1 K103 N mutant infected in human MT4 cells assessed as reduction in virus-induced cytopathic effect incubated for 5 days by MTT assay; assay type: functional, organism-based; conditions: Human immunodeficiency virus 1, K103 N mutant, MT4, 120 h
[6] = tested on: Human immunodeficiency virus 1; assay: Antiviral activity against drug-resistant HIV-1 Y181C mutant infected in human MT4 cells assessed as reduction in virus-induced cytopathic effect incubated for 5 days by MTT assay; assay type: functional, organism-based; conditions: Human immunodeficiency virus 1, Y181C mutant, MT4, 120 h
[7] = tested on: Human immunodeficiency virus 1; assay: Antiviral activity against drug-resistant HIV-1 Y188L mutant infected in human MT4 cells assessed as reduction in virus-induced cytopathic effect incubated for 5 days by MTT assay; assay type: functional, organism-based; conditions: Human immunodeficiency virus 1, Y188L mutant, MT4, 120 h
[8] = tested on: Human immunodeficiency virus 1; assay: Antiviral activity against drug-resistant HIV-1 E138K mutant infected in human MT4 cells assessed as reduction in virus-induced cytopathic effect incubated for 5 days by MTT assay; assay type: functional, organism-based; conditions: Human immunodeficiency virus 1, E138K mutant, MT4, 120 h
[9] = target: Human immunodeficiency virus type 1 reverse transcriptase (Human immunodeficiency virus 1, UniProt Q72547); assay: Inhibition of recombinant wild-type p66/p51 HIV-1 reverse transcriptase incubated for 40 mins by picogreen dye-based spectrofluorometric analysis
[10] = Fold resistance, ratio of EC50 for antiviral activity against drug-resistant HIV-1 L100I mutant infected in human MT4 cells to EC50 for antiviral activity against […] HIV-1 infected in human MT4 cells; assay type: functional
[11] = Fold resistance, ratio of EC50 for antiviral activity against drug-resistant HIV-1 K103 N mutant infected in human MT4 cells to EC50 for antiviral activity against […] HIV-1 infected in human MT4 cells; assay type: functional
[12] = Fold resistance, ratio of EC50 for antiviral activity against drug-resistant HIV-1 Y181C mutant infected in human MT4 cells to EC50 for antiviral activity against […] HIV-1 infected in human MT4 cells; assay type: functional
[13] = Fold resistance, ratio of EC50 for antiviral activity against drug-resistant HIV-1 Y188L mutant infected in human MT4 cells to EC50 for antiviral activity against […] HIV-1 infected in human MT4 cells; assay type: functional
[14] = Fold resistance, ratio of EC50 for antiviral activity against drug-resistant HIV-1 E138K mutant infected in human MT4 cells to EC50 for antiviral activity against […] HIV-1 infected in human MT4 cells; assay type: functional

Row | SMILES | EC50 [1] [µM] | CC50 at 120 h [2] [µM] | selectivity ratio [3] | EC50 [4] [µM] | EC50 [5] [µM] | EC50 [6] [µM] | EC50 [7] [µM] | EC50 [8] [µM] | IC50 [9] [µM] | Ratio EC50 [10] | Ratio EC50 [11] | Ratio EC50 [12] | Ratio EC50 [13] | Ratio EC50 [14]
1 | Cc1c(C(C#N)c2ccccn2)nc(SC(C)C)[nH]c1=O (stereo unspecified) | 1.47 | 304 | 207 | 45.9 | > 304 | 51.2 | > 304 | 3.8 | 9.4 | 31 | >207 | 35 | >207 | 3
2 | Cc1ccnc2c1NC(=O)c1cccnc1N2C1CC1 [NEVIRAPINE] | 0.17 | – | – | 2.57 | 8.1 | 7.71 | > 15 | 0.198 | – | – | – | – | – | –
3 | COc1cc(F)cc(C(C#N)c2nc(SC(C)C)[nH]c(=O)c2C)c1 (stereo unspecified) | 0.123 | 161 | 1310 | 3.94 | 23.1 | 5.23 | 54.4 | 0.35 | 0.236 | 32 | 188 | 43 | 442 | 3
4 | Cc1c(C(C#N)c2ccccc2C(F)(F)F)nc(SC(C)C)[nH]c1=O (stereo unspecified) | 2.61 | 251 | 96 | 5.92 | > 67.6 | 10.1 | > 251 | 3.34 | 5.99 | 2 | >26 | 4 | >96 | 1
5 | COc1ccccc1C(C#N)c1nc(SC(C)C)[nH]c(=O)c1C (stereo unspecified) | 0.04 | > 379 | > 9380 | 0.4 | 3.51 | 1.91 | 27.5 | 0.09 | 0.158 | 10 | 88 | 48 | 687 | 2
6 | Cc1ccc(C(C#N)c2nc(SC(C)C)[nH]c(=O)c2C)cc1 (stereo unspecified) | 0.32 | 12.8 | 40 | > 12.9 | > 12.9 | > 12.9 | > 12.9 | 0.63 | 0.667 | >40 | >40 | >40 | >40 | 2
7 | Cc1cccc(C(C#N)c2nc(SC(C)C)[nH]c(=O)c2C)c1 (stereo unspecified) | 0.141 | 167 | 1180 | 2.06 | 20.9 | 4.41 | 65.4 | 0.37 | 0.271 | 15 | 148 | 31 | 464 | 3
8 | Cc1c(C(C#N)c2ccccc2F)nc(SC(C)C)[nH]c1=O (stereo unspecified) | 0.055 | 113 | 2030 | 3.53 | 10.6 | 3.92 | > 113 | 0.17 | 0.099 | 64 | 192 | 71 | >2051 | 3
9 | Cc1cn([C@H]2C[C@H](N=[N+]=[N-])[C@@H](CO)O2)c(=O)[nH]c1=O [ZIDOVUDINE] | 0.0229 | – | > 309 | 0.0084 | 0.0287 | 0.0242 | 0.0108 | 0.0268 | – | 0.4 | 1 | 1 | 0.5 | 1
10 | Cc1c(C(C#N)c2cc(Cl)cc(C(F)(F)F)c2)nc(SC(C)C)[nH]c1=O (stereo unspecified) | 4.17 | 23.1 | 6 | > 23.1 | > 23.1 | > 23.1 | > 23.1 | 10.9 | 3.52 | >6 | >6 | >6 | >6 | 3
11 | Cc1c(C(C#N)c2cccnc2)nc(SC(C)C)[nH]c1=O (stereo unspecified) | 26.2 | 363 | 14 | 47.9 | > 363 | > 363 | > 363 | 54.1 | 318 | 2 | >14 | >14 | >14 | 2
12 | Cc1c(C(C#N)c2ccc(F)cc2)nc(SC(C)C)[nH]c1=O (stereo unspecified) | 3.98 | 113 | 28 | 63.5 | > 113 | > 113 | > 113 | 12.6 | 14.3 | 16 | >28 | >28 | >28 | 3
13 | Cc1c(C(C#N)c2cccnc2Cl)nc(SC(C)C)[nH]c1=O (stereo unspecified) | 1.14 | 251 | 221 | 23.8 | 53.6 | > 60.9 | > 251 | 1.56 | 13.1 | 21 | 47 | >53 | >221 | 1
14 | Cc1c(C(C#N)c2ccc(C(C)C)cc2)nc(SC(C)C)[nH]c1=O (stereo unspecified) | 0.6 | 225 | 376 | 5.51 | > 225 | 10.2 | > 225 | 1.5 | 2.15 | 9 | >375 | 17 | >375 | 3
15 | Cc1c(C(C#N)c2ccccc2Cl)nc(SC(C)C)[nH]c1=O (stereo unspecified) | 0.068 | 89.2 | 1320 | 1.78 | 9.91 | 3.47 | 54.9 | 0.08 | 0.079 | 26 | 146 | 51 | 807 | 1
16 | Cc1c(C(C#N)c2cc(Cl)cc(Cl)c2)nc(SC(C)C)[nH]c1=O (stereo unspecified) | 0.66 | 28.9 | 44 | > 13.2 | > 28.9 | 11.4 | > 28.9 | 4.22 | 0.479 | >20 | >44 | 17 | >44 | 6
17 | Cc1c(C(C#N)c2cc(C(F)(F)F)cc(C(F)(F)F)c2)nc(SC(C)C)[nH]c1=O (stereo unspecified) | 27.4 | 287 | – | > 278 | > 287 | 186 | > 287 | 224 | 55.1 | >10 | >10 | 7 | >10 | 8
18 | O=C1Nc2ccc(Cl)cc2[C@@](C#CC2CC2)(C(F)(F)F)O1 [EFAVIRENZ] | – | – | – | 0.0371 | 0.0942 | 0.0071 | 0.205 | 0.0062 | – | – | – | – | – | –
19 | Cc1c(C(C#N)c2ccc(-c3ccccc3)cc2)nc(SC(C)C)[nH]c1=O (stereo unspecified) | > 30.5 | 30.5 | < 1 | – | – | – | – | – | – | – | – | – | – | –
20 | Cc1cc(C#N)cc(C)c1Oc1nc(Nc2ccc(C#N)cc2)nc(N)c1Br [ETRAVIRINE] | – | 4.6 | > 1620 | 0.0115 | 0.0034 | 0.0162 | – | 0.0092 | – | 4 | 1 | 6 | 7 | 3
